These results are taken from patent US20230416262A1, “TRPML MODULATORS” (Casma Therapeutics, Inc., priority 2020, published 2023).

The structures appear in SMILES notation. A value given as a limit tells only on which side of the number the result lay.

This assay has as its system TFEB. The assay can be described thus: TFEB nuclear translocation assay. It counts as cell-based. To be noted: Homo sapiens; HeLa wt or HeLa TRPML1 KO cells, treated for 2 hrs; ratio of nuclear to ring-region TFEB intensity. How it is done: For the TFEB nuclear translocation assay, HeLa wt or HeLa TRPML1 KO cells were plated at 2700 cells/well into black-walled, 384-well Cell carrier Ultra tissue culture treated plates in complete media and incubated overnight. The next day, cells are treated for 2 hrs with compounds and incubated at 37° C. Cells were then fixed for 30 minutes at room temperature in 4% final PFA and washed five times with 90 μL PBS. PBS is aspirated from the wells and the cells are blocked with 7.5 μL blocking buffer (1.1 PBS/Odyssey block buffer containing 0.1% triton x-100 and 1% goat serum). After 30-60 minutes of block, 7.5 μL of primary anti-TFEB (rabbit) antibody is added for a final dilution of 1:200 antibody in 15 μL blocking buffer. Plates are incubated overnight at 4° C. The following day, plates are washed again into PBS, 90 μL with 5 washes, all PBS is aspirated from the wells and the cells are incubated for 1 hr in 1:1000 goat-anti rabbit Alexa 488 secondary antibody, also containing 10 μg/mL Hoechst 33342. After the 1 hr RT incubation, plates are washed a final time into PBS, sealed with foil and imaged with an automated epifluorescence microscopy (PerkinElmer Operetta CLS). Four different fields were imaged per well using ×20 magnification for DAPI and FITC filter sets. Images were quantified using PerkinElmer Harmony software, briefly: apply flatfield correction (basic/advanced) for input images. Use the Find Nuclei building block with channel set at Hoechst to find the nuclei. Use the Find cytoplasm building block with channel set to Alexa 488 to find the cytoplasm. Use select cell region with Channel set at Alexa 488 and region of interest as Nuclei and define outer border at 0 μm and inner at 45 μm to cover complete nuclei. Use select cell region with Channel set at Alexa 488 and region of interest as ring region and define outer border at −5 μm and inner at 0 μm to define a ring around the nucleus. Use the find calculate intensity parameter to calculate intensity of the nuclear region and the ring region. Define results as Number of nuclei and ratio of A/B where A is Intensity of Nuclei and B is intensity of the ring region.

The term EC50 denotes the concentration giving half of the maximal effect. Consider `O=S(=O)(Cc1ccccc1)N1CC2(CCCC2)c2ccccc21` [Compound I-1, 1′-phenylmethanesulfonyl-1′,2′-dihydrospiro[cyclopentane-1,3′-indole]], for which the EC50 is 8.01 to 9.99 µM.

Turning to `CC(C)C(=O)c1ccc(S(=O)(=O)N2CC3(CCCC3)c3ccccc32)cc1` [Compound I-3, 1-[4-({1′,2′-dihydrospiro[cyclopentane-1,3′-indol]-1′-yl}sulfonyl)phenyl]-2-methylpropan-1-one], the EC50 was 2.01 to 8 µM. Consider `CC(C)c1ccc(S(=O)(=O)N2CC3(CCCC3)c3ccccc32)cc1` [Compound I-4, 1′-[4-(propan-2-yl)benzenesulfonyl]-1′,2′-dihydrospiro[cyclopentane-1,3′-indole]], for which the EC50 lay in the range of 8.01 to 9.99 µM. Turning to `CN1Cc2cc(S(=O)(=O)N3CC4(CCCC4)c4ccccc43)ccc2OC1=O` [Compound I-6, 6-({1′,2′-dihydrospiro[cyclopentane-1,3′-indol]-1′-yl}sulfonyl)-3-methyl-3,4-dihydro-2H-1,3-benzoxazin-2-one], the EC50 is at least 10 µM. Consider `COC(CS(=O)(=O)N1CC2(CCCC2)c2ccccc21)c1ccc(F)cc1` (stereo not shown) [Compound I-7, 1′-[2-(4-fluorophenyl)-2-methoxyethanesulfonyl]-1′,2′-dihydrospiro[cyclopentane-1,3′-indole]], for which the EC50 was at least 10 µM. For the molecule `COC1Cc2ccc(S(=O)(=O)N3CC4(CCCC4)c4ccccc43)cc2C1` (stereo not shown) [Compound I-8, 1′-[(2-methoxy-2,3-dihydro-1H-inden-5-yl)sulfonyl]-1′,2′-dihydrospiro[cyclopentane-1,3′-indole]], the EC50 is at least 10 µM. Take `CS(=O)(=O)c1ccc(S(=O)(=O)N2CC3(CCCC3)c3ccccc32)cc1` [Compound I-9, 1′-(4-methanesulfonylbenzenesulfonyl)-1′,2′-dihydrospiro[cyclopentane-1,3′-indole]]: the EC50 lay in the range of 2.01 to 8 µM. Turning to `CS(=O)(=O)c1ccc(S(=O)(=O)N2CC3(CCCC3)c3ccccc32)cc1F` [Compound I-10, 1′-(3-fluoro-4-methanesulfonylbenzenesulfonyl)-1′,2′-dihydrospiro[cyclopentane-1,3′-indole]], the EC50 lay within 2.01 to 8 µM.

`Cc1cc(S(=O)(=O)N2CC3(CCCC3)c3ccccc32)ccc1F` [Compound I-11, 1′-(4-fluoro-3-methylbenzenesulfonyl)-1′,2′-dihydrospiro[cyclopentane-1,3′-indole]]: the EC50 was at least 10 µM. On to `Cc1ccc(CS(=O)(=O)N2CC3(CCCC3)c3ccccc32)cc1` [Compound I-12, 1′-[(4-methylphenyl)methanesulfonyl]-1′,2′-dihydrospiro[cyclopentane-1,3′-indole]], for which the EC50 is at least 10 µM. For `Cc1ccc(S(=O)(=O)N2CC3(CCCC3)c3ccccc32)cc1` [Compound I-13, 1′-(4-methylbenzenesulfonyl)-1′,2′-dihydrospiro[cyclopentane-1,3′-indole]] the value was at least 10 µM; for `Cc1ccc(CS(=O)(=O)N2CC3(CCCC3)c3ccccc32)cc1C` [Compound I-14, 1′-[(3,4-dimethylphenyl)methanesulfonyl]-1′,2′-dihydrospiro[cyclopentane-1,3′-indole]], 2.01 to 8 µM. With `Cc1ccc(S(=O)(=O)N2CC3(CCCC3)c3ccccc32)cc1F` [Compound I-15, 1′-(3-fluoro-4-methylbenzenesulfonyl)-1′,2′-dihydrospiro[cyclopentane-1,3′-indole]], the EC50 is 8.01 to 9.99 µM. For `Cc1cccc(CS(=O)(=O)N2CC3(CCCC3)c3ccccc32)c1` [Compound I-16, 1′-[(3-methylphenyl)methanesulfonyl]-1′,2′-dihydrospiro[cyclopentane-1,3′-indole]] the value was at least 10 µM; for `O=S(=O)(c1cnn(C2CCC2)c1)N1CC2(CCCC2)c2ccccc21` [Compound I-17, 1′-[(1-cyclobutyl-1H-pyrazol-4-yl)sulfonyl]-1′,2′-dihydrospiro[cyclopentane-1,3′-indole]], at least 10 µM; for `O=S(=O)(c1cnn(C2CCCCC2)c1)N1CC2(CCCC2)c2ccccc21` [Compound I-18, 1′-[(1-cyclohexyl-1H-pyrazol-4-y1)sulfonyl]-1′,2′-dihydrospiro[cyclopentane-1,3′indole]], 2.01 to 8 µM. For `O=S(=O)(c1cnn(C2CCOCC2)c1)N1CC2(CCCC2)c2ccccc21` [Compound I-19], the EC50 is at least 10 µM. As to `O=S(=O)(c1cncc(C(F)F)c1)N1CC2(CCCC2)c2ccccc21` [Compound I-20, 1′-{[S-(difluoromethyl)pyridin-3-yl]sulfonyl}-1′,2′-dihydrospiro[cyclopentane-1,3′-indole]], the EC50 was at least 10 µM. For `O=S(=O)(c1cc(C2OCCO2)cs1)N1CC2(CCCC2)c2ccccc21` [Compound I-21, 1′-{[4-(1,3-dioxolan-2-yl)thiophen-2-yl]sulfonyl}-1′,2′-dihydrospiro[cyclopentane-1,3′-indole]] the value was at least 10 µM. For `O=S(=O)(c1ccc(C2OCCO2)cc1F)N1CC2(CCCC2)c2ccccc21` [Compound I-22, 1′-[4-(1,3-dioxolan-2-yl)-2-fluorobenzenesulfonyl]-1′,2′-dihydrospiro[cyclopentane-1,3′-indole]] the value was at least 10 µM. `O=S(=O)(c1ccc(OC(F)F)c(F)c1)N1CC2(CCCC2)c2ccccc21` [Compound I-23, 1′-[4-(difluoromethoxy)-3-fluorobenzenesulfonyl]-1′,2′-dihydrospiro[cyclopentane-1,3′-indole]]: the EC50 was at least 10 µM. For the molecule `O=S(=O)([C@H]1C[C@@H]1c1cccc(F)c1)N1CC2(CCCC2)c2ccccc21` [Compound I-24, 1′{[(1S,2R)-2-(3-fluorophenyl)cyclopropyl]sulfonyl}-1′,2′-dihydrospiro[cyclopentane-1,3′-indole]], the EC50 is at least 10 µM. As for `O=S(=O)(Cc1cccc(F)c1)N1CC2(CCCC2)c2ccccc21` [Compound I-25, 1′-[(3-fluorophenyl)methanesulfonyl]-1′,2′-dihydrospiro[cyclopentane-1,3′-indole]], the EC50 fell in the range of 2.01 to 8 µM. `O=S(=O)(c1cccc(C2CC2)c1)N1CC2(CCCC2)c2ccccc21` [Compound I-26, 1′-(3-cyclopropylbenzenesulfonyl)-1′,2′-dihydrospiro[cyclopentane-1,3′-indole]]: the EC50 lay within 2.01 to 8 µM. As to `O=S(=O)(c1cccc(C2OCCO2)c1)N1CC2(CCCC2)c2ccccc21` [Compound I-27, 1′-[3-(1,3-dioxolan-2-yl)benzenesulfonyl]-1′,2′-dihydrospiro[cyclopentane-1,3′-indole]], the EC50 is 2.01 to 8 µM. With `O=S(=O)(c1ccc(C(F)F)cc1)N1CC2(CCCC2)c2ccccc21` [Compound I-28, 1′-[4-(difluoromethyl)benzenesulfonyl]-1′,2′-dihydrospiro[cyclopentane-1,3′-indole]], the EC50 was at least 10 µM. Turning to `O=S(=O)(c1ccc(C2CC2)cc1)N1CC2(CCCC2)c2ccccc21` [Compound I-29, 1′-(4-cyclopropylbenzenesulfonyl)-1′,2′-dihydrospiro[cyclopentane-1,3′-indole]], the EC50 lay within 2.01 to 8 µM.

`O=S(=O)(Cc1ccc(F)cc1)N1CC2(CCCC2)c2ccccc21` [Compound I-30, 1′-[(4-fluorophenyl)methanesulfonyl]-1′,2′-dihydrospiro[cyclopentane-1,3′-indole]]: the EC50 was at least 10 µM. For the molecule `O=S(=O)(c1ccc(Br)cc1)N1CC2(CCCC2)c2ccccc21` [Compound I-32, 1′-(4-bromobenzenesulfonyl)-1′,2′-dihydrospiro[cyclopentane-1,3′-indole]], the EC50 is at least 10 µM.

For the molecule `O=S(=O)(c1ccc(C2CC2)s1)N1CC2(CCCC2)c2ccccc21` [Compound I-33, 1′-[(5-cyclopropylthiophen-2-yl)sulfonyl]-1′,2′-dihydrospiro[cyclopentane-1,3′-indole]], the EC50 was at least 10 µM. For `O=S(=O)(Cc1ccc2c(c1)COCC2)N1CC2(CCCC2)c2ccccc21` [Compound I-34, 1′-[(3,4-dihydro-1H-2-benzopyran-7-yl)methanesulfonyl]-1′,2′-dihydrospiro[cyclopentane-1,3′-indole]], the EC50 lay within 2.01 to 8 µM. Take `O=S(=O)(c1ccc2c(c1)COC2)N1CC2(CCCC2)c2ccccc21` [Compound I-36, 1′-(1,3-dihydro-2-benzofuran-5-sulfonyl)-1′,2′-dihydrospiro[cyclopentane-1,3′-indole]]: the half-maximal effective concentration (EC50) was at least 10 µM. For `O=S(=O)(c1ccc2c(c1)COCC2)N1CC2(CCCC2)c2ccccc21` [Compound I-37] the value was 2.01 to 8 µM. Turning to `O=S(=O)(CC(F)c1ccccc1)N1CC2(CCCC2)c2ccccc21` (stereo not shown) [Compound I-38, 1′-(2-fluoro-2-phenylethanesulfonyl)-1′,2′-dihydrospiro[cyclopentane-1,3′-indole]], the EC50 is at least 10 µM.
